Experimental data published in ChEMBL document CHEMBL3886216, “Triazine carboxamides as sodium channel blockers” (2015).

The molecules below were run against Sodium channel protein type 9 subunit alpha (Homo sapiens, UniProt Q15858) (assay: FLIPR Assay: […] Sodium Dye Assay with KCl: Cells were prepared by plating the recombinant HEK293 cells or other host cells expressing either recombinant or non-recombinant, native, Nav1.7 alpha subunit, alone or in combination with various beta and gamma subunits at a density of ~40,000 cells/well into a 96-well black, clear-bottom, PDL-coated plate. The assay can be adapted to 384-well or 1,536-well format, if desired, using proportionately fewer cells and less media. The plate was then incubated in growth media, with or without selective antibiotic, overnight at 37 C. at 5% CO2, 95% humidity, in preparation for the assay. For counter-screens of other voltage-gated sodium channels, the procedure was very similar, though optimal densities of cells, media and subsequent assay components can be fine-tuned for the particular cell line or isoform. […] Membrane Potential Assay with KCl: Cells are prepared by plating the recombinant HEK293 cells.).
Chain of Sodium channel protein type 9 subunit alpha (Q15858 whole entry): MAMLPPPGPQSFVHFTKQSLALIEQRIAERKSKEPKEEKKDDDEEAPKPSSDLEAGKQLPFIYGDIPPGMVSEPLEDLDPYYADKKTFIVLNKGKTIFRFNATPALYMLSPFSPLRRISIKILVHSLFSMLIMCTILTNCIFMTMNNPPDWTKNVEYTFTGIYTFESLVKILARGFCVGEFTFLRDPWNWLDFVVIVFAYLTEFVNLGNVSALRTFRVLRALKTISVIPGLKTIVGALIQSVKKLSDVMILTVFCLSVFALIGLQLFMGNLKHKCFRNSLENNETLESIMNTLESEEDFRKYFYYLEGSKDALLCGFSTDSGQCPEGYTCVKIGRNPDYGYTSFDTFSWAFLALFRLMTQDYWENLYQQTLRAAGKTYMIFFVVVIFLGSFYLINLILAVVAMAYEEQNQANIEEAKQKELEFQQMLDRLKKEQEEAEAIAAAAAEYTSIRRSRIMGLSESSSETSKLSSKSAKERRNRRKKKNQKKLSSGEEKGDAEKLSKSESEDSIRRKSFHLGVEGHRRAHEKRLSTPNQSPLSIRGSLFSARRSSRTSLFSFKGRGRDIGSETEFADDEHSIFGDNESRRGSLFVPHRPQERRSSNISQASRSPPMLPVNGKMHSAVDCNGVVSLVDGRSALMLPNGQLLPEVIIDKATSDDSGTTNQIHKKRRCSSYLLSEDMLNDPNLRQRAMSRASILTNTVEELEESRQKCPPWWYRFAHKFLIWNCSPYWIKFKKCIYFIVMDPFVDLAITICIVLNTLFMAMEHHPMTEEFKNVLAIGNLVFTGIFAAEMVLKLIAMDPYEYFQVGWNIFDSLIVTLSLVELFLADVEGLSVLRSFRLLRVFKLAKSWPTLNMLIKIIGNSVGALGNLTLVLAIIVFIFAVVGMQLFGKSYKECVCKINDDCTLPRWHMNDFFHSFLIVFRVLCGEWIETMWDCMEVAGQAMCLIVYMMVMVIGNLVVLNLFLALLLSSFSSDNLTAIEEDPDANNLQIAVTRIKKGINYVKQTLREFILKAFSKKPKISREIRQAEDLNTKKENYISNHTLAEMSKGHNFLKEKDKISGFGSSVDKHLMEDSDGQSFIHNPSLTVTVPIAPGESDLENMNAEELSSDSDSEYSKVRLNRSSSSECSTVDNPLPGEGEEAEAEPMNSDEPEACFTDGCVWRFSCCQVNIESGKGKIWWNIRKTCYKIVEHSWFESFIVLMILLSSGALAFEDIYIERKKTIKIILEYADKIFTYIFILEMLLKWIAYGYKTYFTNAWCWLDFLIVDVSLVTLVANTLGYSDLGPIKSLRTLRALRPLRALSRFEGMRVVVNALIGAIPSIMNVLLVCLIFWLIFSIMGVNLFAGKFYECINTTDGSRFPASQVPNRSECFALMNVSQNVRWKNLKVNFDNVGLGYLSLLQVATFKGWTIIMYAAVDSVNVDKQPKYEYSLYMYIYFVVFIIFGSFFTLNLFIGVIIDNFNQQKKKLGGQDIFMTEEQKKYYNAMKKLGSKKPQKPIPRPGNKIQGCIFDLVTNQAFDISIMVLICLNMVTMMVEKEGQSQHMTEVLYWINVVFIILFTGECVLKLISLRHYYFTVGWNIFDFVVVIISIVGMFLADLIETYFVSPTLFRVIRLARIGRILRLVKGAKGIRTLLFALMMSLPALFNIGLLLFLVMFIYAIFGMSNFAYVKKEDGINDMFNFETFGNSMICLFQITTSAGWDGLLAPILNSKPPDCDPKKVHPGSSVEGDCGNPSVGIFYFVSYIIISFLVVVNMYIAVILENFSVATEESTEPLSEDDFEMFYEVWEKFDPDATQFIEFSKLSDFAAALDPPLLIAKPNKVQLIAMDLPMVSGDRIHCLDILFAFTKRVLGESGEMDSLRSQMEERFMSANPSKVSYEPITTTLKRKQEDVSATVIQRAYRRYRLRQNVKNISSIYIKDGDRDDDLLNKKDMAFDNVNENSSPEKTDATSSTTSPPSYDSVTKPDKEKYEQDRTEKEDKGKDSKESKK
Type: cell-based

Q: With N#Cc1nc(-c2ccc(Oc3ccc(OC(F)(F)F)cc3)cc2)nc(N2CCOCC2)n1 as the molecule, how does the IC50 read?
A: > 20 µM

Q: N#Cc1nc(N[C@H]2CCNC2=O)nc(-c2ccc(Oc3ccc(C(F)(F)F)cn3)cc2)n1 was tested. Which IC50 did it give?
A: > 20 µM

Q: Which IC50 does the source give for NC(=O)c1nc(N[C@H]2CCNC2=O)nc(-c2ccc(Oc3ccc(C(F)(F)F)cn3)cc2)n1 here?
A: 1.8 µM
